According to article PMC6269309 (Haematologica, 2018):
Like-named read-outs stand apart in the source and are kept apart here.

Key:
Src pY418 = assay type: cell-based, human
LAT pY200 = assay type: cell-based, human
[1] = tested on: PLCγ2 pY753, pY759, pY1217; assay: Protein phosphorylation, western blot of CRP-stimulated washed platelets: PLCγ2; assay type: cell-based, human
SLP-76 pY145 = assay type: cell-based, human
[2] = tested on: GPVI-induced platelet aggregation; assay type: in vivo, human; conditions: CLL patients, ibrutinib 420 mg once daily or acalabrutinib 100 mg twice daily, PRP, 2-3 h after dose, CRP 10 μg/mL
Btk pY551 = assay type: cell-based, human
[3] = cited from earlier work
Btk pY223 [4] = assay type: cell-based, human
Btk [5] = conditions: cited from earlier work
Btk pY223 [6] = conditions: CLL patients, ibrutinib 420 mg once daily or acalabrutinib 100 mg twice daily
Tec = Tec phosphorylation, immunoprecipitation and blotting with 4G10; assay type: cell-based, human; conditions: washed platelets 8x10^8/mL, CRP 10 μg/mL 180 s
Syk pY525/6 = assay type: cell-based, human
[7] = tested on: platelet aggregation induced by ADP and PAR1 peptide; assay type: in vivo, human; conditions: patients taking either inhibitor, data not shown
[8] = cited from earlier work; remark: listed apart in the source
PLCγ2 pY1217 = assay: Ex vivo PLCγ2 pY1217 phosphorylation in washed platelets of treated patients; set-up: species or system human; conditions: CLL patients, ibrutinib 420 mg once daily or acalabrutinib 100 mg twice daily
[9] = tested on: GPVI-mediated platelet aggregation (washed platelets, CRP); assay: Light transmission aggregometry, washed platelets stimulated with CRP; assay type: cell-based, human
[10] = cited from earlier work; remark: listed apart in the source
[11] = tested on: Ca2+ mobilization in platelets; assay: Measurement of [Ca2+]i in Fura-2-loaded platelets stimulated with CRP; assay type: cell-based, human
Btk [12] = conditions: doses of 2.5 mg/kg; cited from earlier work
[13] = tested on: NFAT signaling in DT40 cells; assay type: cell-based, chicken; conditions: collagen 10 μg/mL, no serum
[14] = tested on: ATP secretion of washed platelets; assay: Granule release; assay type: cell-based, human
[15] = tested on: whole cell tyrosine phosphorylation; assay: Whole cell tyrosine phosphorylation in CRP-stimulated washed platelets; assay type: cell-based, human
[16] = higher concentrations, up to 200 μM

For `CC#CC(=O)N1CCC[C@H]1c1nc(-c2ccc(C(=O)Nc3ccccn3)cc2)c2c(N)nccn12` [acalabrutinib], the “Phosphorylation of Src Y418” value (Src pY418; [16]) was “had no effect”, the “Phosphorylation of LAT Y200” value (LAT pY200; [16]) was “had no effect” and the “Tyrosine phosphorylation of PLCγ2 on Y759 and Y1217” value ([1]; 2 μM, CRP 10 μg/mL) was “blocked”. The “Phosphorylation of SLP-76 Y145” value (SLP-76 pY145; [16]) was “small reduction”, the “GPVI-induced platelet aggregation ex vivo” value [2] was “not blocked” and the “Phosphorylation of Btk Y551” value (Btk pY551; [16]) was “small reduction”. For the same compound, the Half-life [3] was 1 h, the “Mean peak free drug concentration in patients” value ([3]; patients) was 1.3 µM and the “Tyrosine phosphorylation of Btk on Y223” value (Btk pY223 [4]; 2 μM, CRP 10 μg/mL) was “blocked”. For the same compound, the “IC50 for Btk relative to ibrutinib (lower)” value (Btk [5]) was 5 fold, the “Potency as an inhibitor of Btk relative to ibrutinib (lower)” value (Btk [5]) was 5 fold and the “Autophosphorylation of Btk pY223 ex vivo” value (Btk pY223 [6]) was “complete inhibition”. The “Concentration giving full blockade of Tec phosphorylation” value (Tec) was 200 µM, the “Concentration giving partial inhibition of Tec phosphorylation” value (Tec) was “approximately 1 μM” and the “Phosphorylation of Syk Y525/6” value (Syk pY525/6; [16]) was “had no effect”. For the same compound, the “Platelet aggregation induced by ADP and PAR1 peptide ex vivo” value [7] was “not altered”, the “Major hemorrhage in treated patients” value [8] was “not seen” and the “Phosphorylation of PLCγ2 pY1217 ex vivo” value (PLCγ2 pY1217) was “complete inhibition”. The Onset of aggregation ([9]; 2 μM, CRP) was “slight delay in aggregation” and the “Overall magnitude of aggregation response” value ([9]; 2 μM, CRP) was “no effect”.
In the case of `C=CC(=O)N1CCC[C@@H](n2nc(-c3ccc(Oc4ccccc4)cc3)c3c(N)ncnc32)C1` [ibrutinib], the “Bound to plasma proteins” value [10] is listed as 97%, the “Phosphorylation of Src Y418” value (Src pY418; 70 nM, CRP 10 μg/mL) is listed as “not altered” and the “Reversibility of inhibition of Src pY418” value (Src pY418; two washing steps before CRP) is listed as “reversible”. The “Phosphorylation of LAT Y200” value (LAT pY200; 70 nM, CRP 10 μg/mL) was “not altered”, the “Dose at which inhibition of LAT Y200 phosphorylation was seen” value (LAT pY200; CRP 10 μg/mL) was 7 µM and the “Peak Ca2+ concentration after a high concentration of CRP” value ([11]; 70 nM) was “not altered”. For the same compound, the “Peak Ca2+ concentration after a high concentration of CRP” value ([11]; 700 nM) was “markedly reduced”, the “Phosphorylation of downstream PLCγ2” value ([1]; 70 nM, CRP 10 μg/mL) was “reduced to basal levels” and the “Reversibility of inhibition of PLCγ2 pY753 and pY1217” value ([1]; two washing steps before CRP) was “irreversible”. For the same compound, the “Phosphorylation of SLP-76 Y145” value (SLP-76 pY145; 70 nM, CRP 10 μg/mL) was “not altered”, the “Dose at which inhibition of SLP-76 Y145 phosphorylation was seen” value (SLP-76 pY145; CRP 10 μg/mL) was 7 µM and the “GPVI-induced platelet aggregation ex vivo” value [2] was “blocked”. For the same compound, the “Phosphorylation of Btk on Y551” value (Btk pY551; 70 nM, CRP 10 μg/mL) was “not altered”, the “Dose at which inhibition of Btk Y551 phosphorylation was seen” value (Btk pY551; CRP 10 μg/mL) was 7 µM and the Initial half-life [3] was 2 to 3 h. For the same compound, the Terminal half-life [3] was 4 to 8 h, the Btk occupancy (Btk [12]) was > 95% and the “Autophosphorylation of Btk” value (Btk pY223 [4]; 70 nM, CRP 10 μg/mL) was “reduced to basal levels”. The “Reversibility of inhibition of Btk pY223 autophosphorylation” value (Btk pY223 [4]; two washing steps before CRP) was “irreversible”, the “NFAT signaling, WT and KD Btk transfected cells” value ([13]; high dose (range 0.5-10 μM)) was “blocked NFAT signaling” and the “NFAT signaling, cells transfected with WT or KD Btk” value ([13]; low dose (range 0.5-10 μM)) was “had no effect”. The “Concentration giving full blockade of Tec phosphorylation” value (Tec) was 7 µM, the “Concentration giving partial blockade of Tec phosphorylation” value (Tec) was 170 nM and the “ATP secretion in response to a high concentration of CRP” value ([14]; 70 nM) was “no effect”. For the same compound, the “ATP secretion in response to a high concentration of CRP” value ([14]; 700 nM) was “blocked”, the “Phosphorylation of Syk Y525/6” value (Syk pY525/6; 70 nM, CRP 10 μg/mL) was “not altered” and the “Dose at which inhibition of Syk Y525/6 phosphorylation was seen” value (Syk pY525/6; CRP 10 μg/mL) was 7 µM. For the same compound, the “Dose at which inhibition of whole cell phosphorylation was seen” value ([15]; CRP 10 μg/mL) was 7 µM, the “Reversibility of inhibition of global tyrosine phosphorylation” value ([15]; two washing steps before CRP) was “reversible on washout” and the “Platelet aggregation induced by ADP and PAR1 peptide ex vivo” value [7] was “not altered”. The “Phosphorylation of PLCγ2 pY1217 ex vivo” value (PLCγ2 pY1217) was “complete inhibition”, the “Response to a sub-maximal concentration of CRP” value ([9]; 70 nM) was “reduced response” and the “Aggregation in response to a high concentration of CRP” value ([9]; 70 nM, incubation ≥5 min, CRP 10 μg/mL) was “time-dependent delay in aggregation”. The “Aggregation in response to a high dose of CRP” value ([9]; 700 nM, incubation ≥30 s, CRP 10 μg/mL) was “block aggregation”.
